Assays:
[1] = Binding of GSAO to dithiols, loss of thiols in DTNB assay; details: errors are 1 SD, read-out: Dissociation Constant
Method: FIG. 12. Interaction of GSAO with synthetic. Deptide and protein dithiols. DMP (A) (15 μM), 6,8-thioctic acid (B) ([…]), dithiothreitol (C) (8.5 μM), TrpCysGlyProCysLys (D) (4.6 μM), TrpCysGlyHisCysLys (E) (5.5 μM) or thioredoxin (F) (4.1 μM corresponding to 20.6 μM thiols) was incubated with GSAO (0–56 μM) for 10 minutes. DTNB (950 μM) was then added and the reactions incubated for a further 10 minutes. The concentration of thiol in the reactions was determined from the absorbance of the TNB dianion at 412 nm. The solid lines represent the best non-linear least squares fit of the data to Equation 1 (A to E) or Equation 2 (F) and have been drawn using the parameter estimates in Table 1. […]
A stock solution of DMP (5 μL, 50 μmol) was dissolved in DMSO (995 μL), giving a concentration of 50 mM DMP. […] The activity of the arsenical could then be determined by the titration of varying amounts of arsenical against the DMP working solution (10 μL) in a 96-well microbitre plate, with the total volume made up to 195 μL by addition of buffer. […] The absorbance at 412 nm due to the formation of the TNB dianion was measured using a Molecular Devices Thermomax Plus (Palo Alto, Calif.) microplate reader. […]
Binding of GSAO to dithiols was measured from loss of thiols using the DTNB assay described above. […]

[2] = biological target: T1, TrpCysGlyHisCysLys (PDI active site hexapeptide) (Homo sapiens, UniProt P07237); test: as above
T1 construct: purchased Auspep, Parkville, Australia; host or cells: synthetic peptide
Method: (§1) FIG. 12. Interaction of GSAO with synthetic. Deptide and protein dithiols. DMP (A) (15 μM), 6,8-thioctic acid (B) ([…]), dithiothreitol (C) (8.5 μM), TrpCysGlyProCysLys (D) (4.6 μM), TrpCysGlyHisCysLys (E) (5.5 μM) or thioredoxin (F) (4.1 μM corresponding to 20.6 μM thiols) was incubated with GSAO (0–56 μM) for 10 minutes. DTNB (950 μM) was then added and the reactions incubated for a further 10 minutes. The concentration of thiol in the reactions was determined from the absorbance of the TNB dianion at 412 nm. The solid lines represent the best non-linear least squares fit of the data to Equation 1 (A to E) or Equation 2 (F) and have been drawn using the parameter estimates in Table 1. The dotted line in part A represents a simulated titration assuming an infinite affinity of GSAO for the dithiol. GSAO bound to both synthetic, peptide and protein dithiols with dissociation constants in the range 130 nM to 1.4 μM.
(§2) A stock solution of DMP (5 μL, 50 μmol) was dissolved in DMSO (995 μL), giving a concentration of 50 mM DMP. A second dilution of the 50 mM DMP stock solution (10 μL) in pH 7.0 buffer (0.1 M HEPES, 0.3 M NaCl, 1 mM EDTA) (990 μL) gave a working solution of 500 ? M DMP. The activity of the arsenical could then be determined by the titration of varying amounts of arsenical against the DMP working solution (10 μL) in a 96-well microbitre plate, with the total volume made up to 195 μL by addition of buffer. After a 10 minute incubation at room temperature, during which time the solutions were agitated on a plate shaker, 5 μL of a 37.9 mM stock solution of DTNB (15 mg) in DMSO (1 mL) was added, and the plate incubated with shaking for another 10 minutes. The absorbance at 412 nm due to the formation of the TNB dianion was measured using a Molecular Devices Thermomax Plus (Palo Alto, Calif.) microplate reader. The extinction coefficient for the TNB dianion at pH 7.0 is 14,150 M^−1cm^−1 at 412 nm (Riddles et al., 1983).
(§3) Recombinant human thioredoxin produced in E. coli was from American Diagnostica, Greenwich, Conn. The hexapeptides, TrpCysGlyProCysLys (SEQ ID NO: 1) and TrpCysGiyHisCysLys (SEQ ID NO: 2), were from Auspep, Parkville, Australia.
(§4) Binding of GSAO to dithiols was measured from loss of thiols using the DTNB assay described above. The dissociation constant, Kd, for GSAO binding to dithiols was determined by incubating increasing concentrations of GSAO, I, with a fixed dithiol concentration, [S]T, and measuring the remaining dithiol using DTNB. Note that the concentration of dithiol equals half the TNB concentration. The concentration of dithiol.GSAO complex, SI, as a function of the total GSAO concentration, [I]T, is described by Equation 1 (Hogg and Jackson, 1990), [SI]=0.5.{([S]T+x.[I]T+Kd)−(([S]T+x.[I]T+Kd)^2−4.[S]T.x.[I]T)^0.5} (1) […]

[3] = biological target: T2, TrpCysGlyProCysLys (thioredoxin active site hexapeptide) (Homo sapiens, UniProt P10599); test: as above
T2 construct: purchased Auspep, Parkville, Australia; host or cells: synthetic peptide
Method: as §1, §2, §3, §4

[4] = Interaction of GSAO with synthetic, peptide and protein dithiols (summary); type: binding; details: units printed within the range; read-out: dissociation constants, range over all dithiols
Method: as §1
Binding of GSAO to dithiols was measured from loss of thiols using the DTNB assay described above. The dissociation constant, Kd, for GSAO binding to dithiols was determined by incubating increasing concentrations of GSAO, I, with a fixed dithiol concentration, [S]T, and measuring the remaining dithiol using DTNB. Note that the concentration of dithiol equals half the TNB concentration. […]

[5] = Titration of cysteine with GSAO, DTNB assay; type: binding; details: cysteine 28 μM, GSAO 0–50 μM, 10 minutes
Method: FIG. 11. Titration of DMP or cysteine with GSAO. DMP (15 μM corresponding to 30 μM thiols) is or cysteine (28 μM) was incubated with GSAO (0–50 μM) for 10 minutes. DTNB (950 μM) was then added and the reactions incubated for a further 10 minutes. The concentration of thiol in the reactions was determined from the absorbance of the TNB dianion at 412 nm.
as §2

adherent BAE cells = test: Membrane permeability, tritiated GSAO in cytosol; type: in vitro ADME, bovine; details: 50 μM GSAO, 1 hour
Method: Human T cells (A3.01) or adherent BAE cells were incubated with complete medium containing 50 μM GSAO and ˜100,000 counts per minute of tritiated GSAO for 1 or 72 hours. Tritiated GSAO was prepared exactly as described for GSAO except that glycine-2-^3H-glutathione (NEN, Boston, Mass.) was used in place of cold glutathione. The cells were washed and lysed by two cycles of freezing and thawing. The cytosolic constituents were collected by differential centrifugation (Ausbel et al., 2000) and the tritiated GSAO was measured. Only 0.5% of the total tritiated GSAO was found in the T cell cytosol and 0.04% in the BAE cytosol after 1 hour. Moreover, only 4.5% of the GSAO penetrated the T cell membrane after 72 hours of culture.

[6] = system: adjuvant-induced arthritis; details: rat, in vivo
[7] = Dissociation Constant, ring size 15, errors are 1 SD
[8] = dissociation constant, approximate value

Compound NC(CCC(=O)NC(CSCC(=O)Nc1ccc([As]=O)cc1)C(=O)NCC(=O)O)C(=O)O (stereo not drawn) [GSAO, 4-(N-(S-glutathionylacetyl)amino)-phenylarsenoxide] has a Kd ([1]; ring size 6) of 0.2 ± 0.05 µM, a Kd ([1]; ring size 7) of 0.42 µM and a Kd [2, 7] of 0.87 ± 0.27 µM. It also gave a Kd [2, 8] of roughly 1 µM, a Kd [3, 7] of 1.42 µM and a Kd [3, 8] of roughly 1 µM. The Kd [4] was 0.13 to 1.4 µM, the “interaction of GSAO with cysteine in DTNB titration” value [5] was “any interaction of GSAO with cysteine was displaced by DTNB” and the “total tritiated GSAO found in the cytosol” value (adherent BAE cells) was 0.04%. For the same compound, the “development of arthritis measured by arthritis severity score, gait, paw volume or weight loss” value [6] was “effectively blocked”, the “signs or symptoms of toxicity for the rats” value [6] was “no signs or symptoms of toxicity” and the “weight gain, GSCA vs GSAO treated rats” value ([6]; 2 mg/kg) was “no difference in weight gain”.
